Where two headings read alike, the source gives them in different places.
Target: T1, human TLR9 (Homo sapiens, UniProt Q9NR96)
T1 construct: host or cells: HEK-Blue cells (HEK293-derived reporter line)
T1 sequence (Q9NR96 26-1032): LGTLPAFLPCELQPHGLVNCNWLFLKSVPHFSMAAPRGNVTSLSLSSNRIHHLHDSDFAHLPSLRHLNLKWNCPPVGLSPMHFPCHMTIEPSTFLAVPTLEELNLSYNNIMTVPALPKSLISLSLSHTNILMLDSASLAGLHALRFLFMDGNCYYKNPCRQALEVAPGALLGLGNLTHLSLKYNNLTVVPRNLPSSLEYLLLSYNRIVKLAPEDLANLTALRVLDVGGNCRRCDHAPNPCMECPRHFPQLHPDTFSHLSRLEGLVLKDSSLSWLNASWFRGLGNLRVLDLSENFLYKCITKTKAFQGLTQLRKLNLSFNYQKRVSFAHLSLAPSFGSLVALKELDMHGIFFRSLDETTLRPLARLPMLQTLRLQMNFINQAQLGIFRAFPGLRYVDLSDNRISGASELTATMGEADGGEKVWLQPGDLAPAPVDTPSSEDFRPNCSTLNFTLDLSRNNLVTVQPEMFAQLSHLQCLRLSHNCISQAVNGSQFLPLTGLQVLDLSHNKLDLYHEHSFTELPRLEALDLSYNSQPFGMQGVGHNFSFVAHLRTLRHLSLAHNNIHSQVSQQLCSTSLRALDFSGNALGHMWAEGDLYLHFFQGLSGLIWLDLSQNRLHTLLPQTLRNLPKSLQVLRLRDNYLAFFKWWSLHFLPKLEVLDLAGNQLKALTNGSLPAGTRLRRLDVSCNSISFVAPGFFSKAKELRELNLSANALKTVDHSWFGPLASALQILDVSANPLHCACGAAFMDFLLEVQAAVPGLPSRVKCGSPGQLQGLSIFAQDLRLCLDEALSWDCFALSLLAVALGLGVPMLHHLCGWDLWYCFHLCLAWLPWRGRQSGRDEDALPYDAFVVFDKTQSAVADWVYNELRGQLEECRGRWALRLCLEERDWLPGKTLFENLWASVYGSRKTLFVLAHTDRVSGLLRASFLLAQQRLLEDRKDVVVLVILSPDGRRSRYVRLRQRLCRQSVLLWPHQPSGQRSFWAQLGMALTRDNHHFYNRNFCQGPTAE
Assay: TLR9 inhibition reporter assay (HEK-Blue cells, secreted embryonic alkaline phosphatase reporter)
Type: cell-based
Summary of the method: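 Steps: seed receptor-specific HEK-Blue cells; add compound, 0.05 nM–50 μM; wait 30 min at room temperature; add final gardiquimod 7.5 μM, R848 15.9 μM or ODN2006 5 nM for TLR7, TLR8 or TLR9; incubate 22 h at 37 °C; detect NF-κB/AP-1-driven SEAP.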

[1] = HEK-Blue cells overexpressing human TLR9, stimulated with ODN2006 5 nM, 22 hour incubation, reporter readout
[2] = HEK-Blue cells overexpressing human TLR9, stimulated with ODN2006 5 nM, read-out: TLR 9 IC50
[3] = HEK-Blue human TLR9 reporter cells

`Cc1cc(C2CCN(C3CCN(CC(C)C)CC3)CC2)cc2[nH]c(-c3cccc4cccnc34)nc12` [Example 82, 8-(6-(1′-isobutyl-[1,4′-bipiperidin]-4-yl)-4-methyl-1H-benzo[d]imidazol-2-yl)quinoline] was tested, and the IC50 [1] was 32 nM and the IC50 [2] was 32 nM.

With `Cc1cc(C2CCN(C3CC4(C3)CN(CC(C)C)C4)CC2)cc2c1nc(-c1ccc(S(C)(=O)=O)cc1)n2C` [Example 141, 6-(1-(2-isobutyl-2-azaspiro[3.3]heptan-6-yl)piperidin-4-yl)-1,4-dimethyl-2-(4-(methylsulfonyl)phenyl)-1H-benzo[d]imidazole] the IC50 was 250 nM and the IC50 [2] was 248 nM.

`Cc1cc(C2CCN(C3CC4CCC(C3)N4CC3CC3)CC2)cc2c1nc(-c1ccc(S(C)(=O)=O)c(F)c1)n2C` (stereo not drawn) [Example 340, 6-(1-(8-(cyclopropylmethyl)-8-azabicyclo[3.2.1]octan-3-yl)piperidin-4-yl)-2-(3-fluoro-4-(methylsulfonyl)phenyl)-1,4-dimethyl-1H-benzo[d]imidazole] showed an IC50 [2] of 84 nM and an IC50 [3] of 84 nM.

`COc1ccc(-c2nc3ccc(C4CCN(C5CCN(C(C)C)CC5)CC4)c(F)c3[nH]2)cc1OC` [Example 132, 2-(3,4-dimethoxyphenyl)-7-fluoro-6-(1′-isopropyl-[1,4′-bipiperidin]-4-yl)-1H-benzo[d]imidazole] showed an IC50 of 200 nM and an IC50 [2] of 202 nM.

Molecule `Cc1cc(C2CCN(C3CCCN(CC4CC4)CC3)CC2)cc2c1nc(-c1ccc(S(C)(=O)=O)cc1)n2C` (stereo not drawn) [Example 137, 6-(1-(1-(cyclopropylmethyl)azepan-4-yl)piperidin-4-yl)-1,4-dimethyl-2-(4-(methylsulfonyl)phenyl)-1H-benzo[d]imidazole] has an IC50 of 19 nM and an IC50 [2] of 19 nM.

Work on `Cc1cc(C2CCN(C3CC4(C3)CN(CC3CCC3)C4)CC2)cc2c1nc(-c1ccc(S(C)(=O)=O)cc1)n2C` [Example 143, 6-(1-(2-(cyclobutylmethyl)-2-azaspiro[3.3]heptan-6-yl)piperidin-4-yl)-1,4-dimethyl-2-(4-(methylsulfonyl)phenyl)-1H-benzo[d]imidazole] yielded an IC50 of 85 nM and an IC50 [2] of 85 nM.

`Cc1cc(C2CCN(C3CC4CCC(C3)N4C3CC3)CC2)cc2c1nc(-c1ccc(S(C)(=O)=O)c(F)c1)n2C` (stereo not drawn) [Example 345, 6-(1-(8-cyclopropyl-8-azabicyclo[3.2.1]octan-3-yl)piperidin-4-yl)-2-(3-fluoro-4-(methylsulfonyl)phenyl)-1,4-dimethyl-1H-benzo[d]imidazole] showed an IC50 [2] of 132 nM and an IC50 [3] of 130 nM.

Molecule `Cc1cc(C2CCN(C3CCN(CC(C)C)CC3)CC2)cc2[nH]c(-c3nccs3)nc12` [Example 79, 2-(6-(1′-isobutyl-[1,4′-bipiperidin]-4-yl)-4-methyl-1H-benzo[d]imidazol-2-yl)thiazole] has an IC50 [1] of 110 nM and an IC50 [2] of 111 nM.

With `Cc1cc(C2CCN(C3CCN(CC(C)C)CC3)CC2)cc2[nH]c(-c3cnc4[nH]ccc4c3)nc12` [Example 81, 6-(1′-isobutyl-[1,4′-bipiperidin]-4-yl)-4-methyl-2-(1H-pyrrolo[2,3-b]pyridin-5-yl)-1H-benzo[d]imidazole] the IC50 [1] was 49 nM and the IC50 [2] was 49 nM.

`CC(C)CN1CC2(CN(Cc3ccc(-c4cc(F)c5nc(-c6ccc(S(C)(=O)=O)cc6)n(C6CC6)c5c4)cc3)C2)C1` [Example 411, 1-cyclopropyl-4-fluoro-6-(4-((6-isobutyl-2,6-diazaspiro[3.3]heptan-2-yl)methyl)phenyl)-2-(4-(methylsulfonyl)phenyl)-1H-benzo[d]imidazole] showed an IC50 [1] of 0.85 nM and an IC50 [2] of 0.9 nM.

Work on `Cc1cc(C2CCN(C3CC4CCC(C3)N4C3CCC3)CC2)cc2c1nc(-c1ccc(S(C)(=O)=O)c(F)c1)n2C` (single isomer, unassigned) [Example 123, 6-(1-(8-cyclobutyl-8-azabicyclo[3.2.1]octan-3-yl)piperidin-4-yl)-2-(3-fluoro-4-(methylsulfonyl)phenyl)-1,4-dimethyl-1H-benzo[d]imidazole] yielded an IC50 [1] of 890 nM and an IC50 [2] of 889 nM.

For `COc1ccc(-c2nc3c(C)cc(C4CCN(C5CC6CCC(C5)N6CC5CC5)CC4)cc3n2C)cc1OC` (stereo not drawn) [Example 149, 6-(1-(8-(cyclopropylmethyl)-8-azabicyclo[3.2.1]octan-3-yl)piperidin-4-yl)-2-(3,4-dimethoxyphenyl)-1,4-dimethyl-1H-benzo[d]imidazole], the IC50 was 47 nM and the IC50 [2] was 47 nM.

For `Cc1cc(C2CCN(C3CCN(CC(C)C)CC3)CC2)cc2[nH]c(-c3ccc(S(C)(=O)=O)c(Br)c3)nc12` [Example 67, 2-(3-bromo-4-(methylsulfonyl)phenyl)-6-(1′-isobutyl-[1,4′-bipiperidin]-4-yl)-4-methyl-1H-benzo[d]imidazole], the IC50 [1] was 44 nM and the IC50 [2] was 44 nM.

Work on `Cc1cc(-c2ccc(N3CCN(CC(C)C)CC3)cc2)cc2c1nc(-c1ccc(S(C)(=O)=O)cc1)n2C` [Example 170, 6-(4-(4-isobutylpiperazin-1-yl)phenyl)-1,4-dimethyl-2-(4-(methylsulfonyl)phenyl)-1H-benzo[d]imidazole] yielded an IC50 of 4400 nM and an IC50 [2] of 4440 nM.

Molecule `Cc1cc2nc(-c3ccc(S(C)(=O)=O)cc3)n(C)c2cc1C1CCN(C2CCN(C(C)C)CC2)CC1` [Example 120, 6-(1′-isopropyl-[1,4′-bipiperidin]-4-yl)-1,5-dimethyl-2-(4-(methylsulfonyl)phenyl)-1H-benzo[d]imidazole] has an IC50 [1] of 180 nM and an IC50 [2] of 178 nM.

`CN(C)C1CCN(Cc2ccc(-c3ccc4nc(-c5ccc(F)c(F)c5)n(C)c4c3)cc2)CC1` [Example 382, 1-(4-(2-(3,4-difluorophenyl)-1-methyl-1H-benzo[d]imidazol-6-yl)benzyl)-N,N-dimethylpiperidin-4-amine] was tested, and the IC50 [1] was 3.2 nM and the IC50 [2] was 3240 nM.

`COc1ccc(-c2nc3c(F)cc(C4CCN(C5CCN(CC(C)C)CC5)CC4)cc3[nH]2)cc1OC` [Example 127, 2-(3,4-dimethoxyphenyl)-4-fluoro-6-(1′-isobutyl-[1,4′-bipiperidin]-4-yl)-1H-benzo[d]imidazole] was tested, and the IC50 was 31 nM and the IC50 [2] was 31 nM.

In the case of `COc1cc(-c2nc3c(C)cc(C4CCN(C5CC6CCC(C5)N6C(C)C)CC4)cc3[nH]2)cn2ncnc12` (stereo not drawn) [Example 362, 6-(6-(1-(8-isopropyl-8-azabicyclo[3.2.1]octan-3-yl)piperidin-4-yl)-4-methyl-1H-benzo[d]imidazol-2-yl)-8-methoxy-[1,2,4]triazolo[1,5-a]pyridine], the IC50 [2] is reported as 152 nM and the IC50 [3] is reported as 150 nM.

`Cc1cc(C2CCN(C3CC4CCC(C3)N4C3CCC3)CC2)cc2[nH]c(-c3ccc(S(C)(=O)=O)c(F)c3)nc12` (stereo not drawn) [Example 350, 6-(1-(8-cyclobutyl-8-azabicyclo[3.2.1]octan-3-yl)piperidin-4-yl)-2-(3-fluoro-4-(methylsulfonyl)phenyl)-4-methyl-1H-benzo[d]imidazole] was tested, and the IC50 [2] was 55 nM and the IC50 [3] was 55 nM.

`Cc1cc(C2CCN(C3CCN(CC(C)C)CC3)CC2)cc2[nH]c(-c3cccc4ncccc34)nc12` [Example 72, 5-(6-(1′-isobutyl-[1,4′-bipiperidin]-4-yl)-4-methyl-1H-benzo[d]imidazol-2-yl)quinoline tris(2,2,2-trifluoroacetate)] gave an IC50 [1] of 88 nM and an IC50 [2] of 88 nM.

`Cc1cc(C2CCN(C3CC4(C3)CN(CC3CC3)C4)CC2)cc2c1nc(-c1ccc(S(C)(=O)=O)cc1)n2C` [Example 142, 6-(1-(2-(cyclopropylmethyl)-2-azaspiro[3.3]heptan-6-yl)piperidin-4-yl)-1,4-dimethyl-2-(4-(methylsulfonyl)phenyl)-1H-benzo[d]imidazole] was tested, and the IC50 was 68 nM and the IC50 [2] was 68 nM.

Reference: patent US12492188B2, “1H-benzo[D]imidazole derivatives as TLR9 inhibitors for the treatment of fibrosis” (BRISTOL-MYERS SQUIBB COMPANY, priority 2020, dated 2025)
